Broadly, the IC50 is the midpoint of a concentration-inhibition curve.

Data on four compounds can be found in patent US8980587B2, “Process for producing reveromycin A or a synthetic intermediate thereof, process for producing compounds containing a spiroketal ring and novel antineoplastics, fungicides and therapeutic agents for bone disorders” (RIKEN, priority 2010, dated 2015).

Values after ≈ are worked out from the molar mass of the structure shown. Where two headings read alike, the source gives them in different places.

The subject of assay [1] is bone metastasis of tumors. As to conditions: background art, Patent Document 1; cited from earlier work.
The subject of assay [2] is Escherichia coli (HO141 strain). The assay can be described thus: Growth-inhibiting activity against Escherichia coli. It counts as cell-based. As to conditions: 6 hours, absorbance at 600 nm, read-out: E. coli IC50. The protocol: Escherichia coli (HO141 strain) was precultured in culture medium of 0.5% Polypeptone, 0.5% Meat Extract, 0.3% NaCl, and 0.001% Sodium Dodecyl Sulfate (SDS) at 37° C. Absorbance at 600 nm was measured, and Escherichia coli solution was prepared such that the absorbance is 0.005 and seeded 100 μl each in a 96-well plate. Each of the agents in Table 5 was added at 0.5% (v/v) and maintained at 37° C. Six hours after addition of the agent, absorbance at 600 nm was measured using a microplate reader (manufactured by PerkinElmer) and a proliferation rate was determined from the measurement value.

Assay [3] has as its system osteoclasts. The assay can be described thus: Growth inhibitory activity against osteoclast (TRAP positive multinucleated cell count). It counts as cell-based, mouse. To be noted: for IC50: Osteoclast, read-out: OC IC50. How it is done:
Bone marrow cells were harvested from thigh bone and shin bone of five-week male ddY mouse (manufactured by Japan SLC, Inc.), seeded in a type I collagen coated plate (manufactured by IWAKI) in a culture medium in which α-MEM medium (manufactured by Sigma-Aldrich) was added with 10% fetal bovine serum, 0.5% penicillin/streptomycin solution, 50 ng/ml human M-CSF (Leukoprol, manufactured by Kyowa Hakko), and 1 ng/ml human TGF-β1 (manufactured by R&D Systems), and maintained at 37° C. under a humidified culture of 5% CO2 for 3 days. Cells were then washed twice with PBS and then cells adhered on the plate were used as bone marrow macrophage cells. Bone marrow macrophage cells were further maintained in a culture medium in which α-MEM medium was added with 10% fetal-bovine serum, 0.5% penicillin/streptomycin solution, 50 ng/ml human M-CSF, 50 ng/ml human soluble RANKL (manufactured by Peprotech) at 37° C. under a humidified culture of 5% CO2 for 3 days to differentiate into osteoclasts.
Each of the agents in Table 5 was added to osteoclasts at 0.5% (v/v) and maintained at 37° C. under a humidified culture of 5% CO2 for 24 hours. Subsequently, cells were treated with PBS solution containing 3.7% formalin at room temperature for 30 minutes. After the solution was removed, the cells were further treated with acetone/ethanol solution (1:1 vol/vol) at room temperature for one minute and the solution was removed to dry the cells. Immobilized cells were subjected to a reaction in TRAP solution [50 mM sodium tartrate, 90 mM sodium acetate, 0.01% naphthol AS-MX phosphate (manufactured by Sigma), 0.05% fast red violet LB salt (manufactured by Sigma), pH 5.0] at room temperature for 30 minutes and then washed with distilled water. The number of TRAP positive multinucleated osteoclasts was counted and a rate of survival was determined.

In assay [4] the test system is osteoclasts. As to conditions: background art, Patent Document 1; cited from earlier work.
In assay [5] the test system is Budding yeast (MLC30M strain). The assay can be described thus: Growth-inhibiting activity against yeast. It counts as cell-based. To be noted: for IC50: Saccharomyces cerevisiae, read-out: Yeast IC50. How it is done:
Budding yeast (MLC30M strain) was precultured in a culture medium of 2% Polypeptone, 1% yeast extract, 2% glucose, 0.02% adenine, and 0.001% sodium dodecyl sulfate (SDS) at 30° C. Absorbance at 600 nm was measured, and yeast solution was prepared such that the absorbance is 0.05 and seeded 100 μl each in a 96-well plate. Each of the agents in Table 5 was added at 0.5% (v/v) and maintained at 30° C. Eighteen hours after addition of the agent, absorbance at 600 nm was measured using a microplate reader (manufactured by PerkinElmer) and a proliferation rate was determined from the measurement value.

Turning to `CCCC[C@@]1(OC(=O)CCC(=O)O)CC[C@]2(CC[C@H](C)[C@@H](C/C=C(C)/C=C/[C@H](O)[C@@H](C)/C=C/C(=O)O)O2)O[C@H]1/C=C/C(C)=C/C(=O)O` [RM-A, Reveromycin A], the “bone metastasis of tumors (in words)” value in assay [1] is “suppress bone metastasis of tumors”. Besides, the IC50 in assay [2] is more than 50 µg/mL; in the assay on osteoclasts [3] (Mus musculus, 24 h) it was 0.06 µg/mL (≈ 0.0908 µM); in assay [5] (18 h) it was 4.3 µg/mL (≈ 6.51 µM). Also, the “apoptosis of osteoclasts (in words)” value in the assay on osteoclasts [4] is “induce apoptosis selectively for osteoclasts at low concentrations”.
For the compound `CCCCCC[C@@]1(OC(=O)CCC(=O)O)CC[C@]2(CC[C@H](C)[C@@H](C/C=C(C)/C=C/[C@H](O)[C@@H](C)/C=C/C(=O)O)O2)O[C@H]1/C=C/C(C)=C/C(=O)O` [RM-E], the IC50 in assay [2] was more than 50 µg/mL; with osteoclasts [3] (Mus musculus, 24 h) it was 0.1 µg/mL (≈ 0.145 µM); in assay [5] (18 h) it was 2.3 µg/mL (≈ 3.34 µM). The “growth inhibiting actions against osteoclast (in words)” value with osteoclasts [3] (summary of Table 5) is “exhibited growth inhibiting actions against osteoclast”.
For `CCCC[C@H]1CC[C@]2(CC[C@H](C)[C@@H](C/C=C(C)/C=C/[C@H](O)[C@@H](C)/C=C/C(=O)OCC)O2)O[C@H]1/C=C/C(C)=C/C(=O)O` [RM-T ethyl-ester], the half-maximal inhibitory concentration (IC50) in assay [2] is more than 50 µg/mL; in the assay on osteoclasts [3] (mouse bone marrow derived osteoclasts, 24 hours, rate of survival), 6 µg/mL (≈ 10.5 µM); in assay [5] (MLC30M strain, 18 hours, absorbance at 600 nm), more than 50 µg/mL.
As to `CCCCC1CCC2(CCC(C)C(C/C=C(C)/C=C/C(O)C(C)/C=C/C(=O)O)O2)OC1/C=C/C(C)=C/C(=O)O` (stereo not shown) [RM-T], the IC50 in assay [2] is more than 50 µg/mL; with osteoclasts [3] (Mus musculus, 24 h), 6.2 µg/mL (≈ 11.4 µM); in assay [5] (18 h) it was 0.05 µg/mL (≈ 0.0918 µM). Also, the “growth-inhibiting activity against yeast (in words)” value in assay [5] (summary of Table 5) is “exhibited growth-inhibiting activity against yeast”.
